Source: patent US12559504B2, “Benzotriazole derivative” (UBE CORPORATION, priority 2019, dated 2026)

How the values were obtained:
NQO1 [1] = test: NQO1 expression induction test in mouse kidney (single administration); assay type: in vivo; settings: Mus musculus, po, 6 h, BALB/c mouse kidney, 6 hours after administration, ratio to control group
In short: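 Female BALB/c mice received a single oral dose of compound in 0.5% methylcellulose, with untreated mice as controls. Six hours later, left-kidney NQO1 mRNA was measured by SYBR real-time RT-PCR normalised to GAPDH. Induction was expressed as the ratio of mean treated to mean control expression.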

[2] = target: T1, GST fusion human Keap1 (amino acid residue: 325-624) protein (Homo sapiens, UniProt Q14145); test: Keap1-Nrf2 binding inhibition test (fluorescence polarization); settings: compound concentration of 100 nM; read-out: inhibition rate
T1 construct: GST fusion human Keap1 (amino acid residue: 325-624) protein; purchased Protein tech Ag0779
T1 sequence (Q14145 325-624): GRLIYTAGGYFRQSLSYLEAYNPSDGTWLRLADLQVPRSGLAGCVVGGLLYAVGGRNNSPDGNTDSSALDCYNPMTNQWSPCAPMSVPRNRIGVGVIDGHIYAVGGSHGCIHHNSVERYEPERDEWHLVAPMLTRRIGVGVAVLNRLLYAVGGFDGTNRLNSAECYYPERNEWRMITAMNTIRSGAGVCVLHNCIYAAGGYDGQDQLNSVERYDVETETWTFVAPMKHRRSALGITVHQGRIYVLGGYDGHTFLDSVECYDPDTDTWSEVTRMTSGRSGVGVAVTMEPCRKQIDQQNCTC
In short: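 Fluorescence polarization with FITC-labelled Nrf2 peptide (FITC-Ahx-LDEETGEFL-NH2) and GST-human Keap1 (325-624) in 20 mM Tris pH 7.5, 150 mM NaCl, 0.05% Tween 20, 5 mM DTT, BSA; 30 min at room temperature, ex 482/em 530 nm. Percent inhibition at 100 nM compound, Keap1-free wells = 100%.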

NQO1 [3] = test: NQO1 enzyme induction test (in vitro) in Hepa1c1c7 cells; assay type: cell-based; settings: Mus musculus, Hepa-1c1c7, 48 h, concentration to elevate the NQO1 activity by 1.5 times, about 48 hours, read-out: EC150
In short: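 Mouse Hepa1c1c7 cells treated about 48 h with compound (0.1% DMSO final), then lysed. NQO1 activity read as MTT reduction at 540 nm with menadione substrate, 5 min at room temperature, and corrected for cell number by CellTiter-Glo. EC150 is the concentration raising NQO1 activity 1.5-fold.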

[4] = Metabolism test using human liver microsome fractions; assay type: in vitro ADME; settings: human liver microsomes, test compound 10 μmol/L, NADPH and UDP-glucuronic acid, 37° C.
In short: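 Compound depletion at 10 μmol/L final, 37 °C, followed by UV-HPLC of acetonitrile-quenched aliquots taken 0, 5, 10, 15, 20, 30 min; incubations contained microsomes (1 mg protein, human or monkey) with NADPH and UDPGA cofactors. Rate = slope over linear range.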

Compound | inhibition at 0.1 µM [2] [%] | fold induction at 30 mg/kg (NQO1 [1]) | EC (1.5-fold NQO1 activity) (NQO1 [3]) [µM] | Human metabolic rate [4] | fold induction at 20 mg/kg (NQO1 [1])
CC[C@@H]1CN(Cc2cc(C(c3ccc4c(nnn4C)c3C)C(C)(C)C(=O)O)ccc2C)Cc2cc3c(cc2O1)OC(C)(C)O3 (stereo partly drawn) [Example 61-(b), 3-(1,4-dimethyl-1H-benzo[d][1,2,3)triazol-5-yl)-3-(3-(((R)-6-ethyl-2,2-dimethyl-6,7-dihydro-(1,3]dioxolo[4′,5′:4,5]benzo[1,2-f][1,4]oxazepin-8(9H)-yl)methyl)-4-methylphenyl)-2,2-dimethylpropanoic Acid] | ≥ 50 | 3 to 6 | 0.005 to 0.05 | A (metabolic rate<100 pmol/min/mg protein) | 
Cc1ccc(C(c2ccc3c(nnn3C)c2C)C(C)(C)C(=O)O)cc1CN1CCOc2cc3cccnc3cc2C1 (stereo not drawn) [Example 63-(b), 3-(3-((2,3-dihydro-[1,4]oxazepino[7,6-g]quinolin-4 (5H)-yl)methyl)-4-methylphenyl)-3-(1,4-dimethyl-1H-benzo[d][1,2,3]triazol-5-yl)-2,2-dimethylpropanoic Acid] | ≥ 50 | 3 to 6 | 0.005 to 0.05 | C (150≤metabolic rate<200 pmol/min/mg protein) | 
CC[C@@H]1CN(Cc2cc(C(c3ccc4c(nnn4C)c3C)C(C)(C)C(=O)O)ccc2C)Cc2cc3c(cnn3C)cc2O1 (stereo partly drawn) [Example 65-(b), 3-(1,4-dimethyl-1H-benzo[d][1,2,3]triazol-5-yl)-3-(3-(((R)-6-ethyl-1-methyl-1,6,7,9-tetrahydro-8H-[1,4]oxazepino[7,6-f]indazol-8-yl)methyl)-4-methylphenyl)-2,2-dimethylpropanoic Acid] | ≥ 50 |  | 0.0005 to 0.005 | D (200≤metabolic rate<250 pmol/min/me protein) | 3 to 6
CC[C@@H]1CN(Cc2cc(C(c3ccc4c(nnn4C)c3C)C(C)(C)C(=O)O)ccc2C)Cc2cc3c(cc2O1)SCC3 (stereo partly drawn) [Example 73-(b), 3-(1,4-dimethyl-1H-benzo[d][1,2,3]triazol-5-yl)-3-(3-(((R)-2-ethyl-2,3,7,8-tetrahydrothieno[2′,3′:4,5]benzo[1,2-f][1,4]oxazepin-4(5H)-yl)methyl)-4-methylphenyl)-2,2-dimethylpropanoic Acid] | ≥ 50 |  | 0.005 to 0.05 | C (150≤metabolic rate<200 pmol/min/mg protein) | > 6
CC[C@@H]1CN(Cc2cc(C(c3ccc4c(nnn4C)c3C)C(C)(C)C(=O)O)ccc2C)Cc2cc3c(cc2O1)S(=O)(=O)CC3 (stereo partly drawn) [Example 74-(b), 3-(1,4-dimethyl-1H-benzo[d][1,2,3]triazol-5-yl)-3-(3-(((R)-2-ethyl-9,9-dioxide-2,3,7,8-tetrahydrothieno[2′,3′:4,5]benzo[1,2-f][1,4]oxazepin-4(5H)-yl)methyl)-4-methylphenyl)-2,2-dimethylpropanoic Acid] | ≥ 50 |  | 0.0005 to 0.005 | B (100≤metabolic rate<150 pmol/min/mg protein) | 3 to 6
Cc1ccc(C(c2ccc3c(nnn3C)c2C)C(C)(C)C(=O)O)cc1CN1Cc2cc3ncccc3cc2O[C@H](C)C1 (stereo partly drawn) [Example 75-(b), 3-(1,4-dimethyl-1H-benzo[d][1,2,3]triazol-5-yl)-2,2-dimethyl-3-(4-methyl-3-(((R)-2-methyl-2,3-dihydro-[1,4]oxazepino[7,6-g]quinolin-4 (5H)-yl)methyl)phenyl) propanoic Acid] | ≥ 50 |  | 0.0005 to 0.005 | E (metabolic rate≥250 pmol/min/mg protein) | > 6
Cc1ccc(C(c2ccc3c(nnn3C)c2C)C(C)(C)C(=O)O)cc1CN1Cc2cc3ncccc3cc2OC2(CC2)C1 (stereo not drawn) [Example 76-(b), 3-(3-((3′H-spiro[cyclopropane-1,2′-[1,4]oxazepino[7,6-g]quinoline]-4′ (5′H)-yl)methyl)-4-methylphenyl)-3-(1,4-dimethyl-1H-benzo[d][1,2,3]triazol-5-yl)-2,2-dimethylpropanoic Acid] | ≥ 50 |  | 0.0005 to 0.005 | B (100≤metabolic rate<150 pmol/min/mg protein) | > 6
CC[C@@H]1CN(Cc2cccc(C(c3ccc4c(nnn4C)c3C)C(C)(C)C(=O)O)c2)Cc2cc3ncccc3cc2O1 (stereo partly drawn) [Example 79-(b), 3-(1,4-dimethyl-1H-benzo[d][1,2,3]triazol-5-yl)-3-(3-(((R)-2-ethyl-2,3-dihydro-[1,4]oxazepino[7,6-g]quinolin-4(5H)-yl)methyl)phenyl)-2,2-dimethylpropanoic Acid] | ≥ 50 |  | 0.005 to 0.05 | E (metabolic rate≥250 pmol/min/mg protein) | 3 to 6
CC[C@@H]1CN(Cc2cc(C(c3ccc4c(nnn4C)c3C)C(C)(C)C(=O)O)ccc2Cl)Cc2cc3ncccc3cc2O1 (stereo partly drawn) [Example 80-(b), 3-(4-chloro-3-(((R)-2-ethyl-2,3-dihydro-[1,4]oxazepino[7,6-g]quinolin-4 (5H)-yl)methyl)phenyl)-3-(1,4-dimethyl-1H-benzo[d][1,2, 3]triazol-5-yl)-2,2-dimethylpropanoic Acid] | ≥ 50 |  | 0.005 to 0.05 | D (200≤metabolic rate<250 pmol/min/me protein) | > 6

More lines, main results first:

inhibition at 0.1 µM [2] [%] | Compound | fold induction at 30 mg/kg (NQO1 [1]) | EC (1.5-fold NQO1 activity) (NQO1 [3]) [µM] | Human metabolic rate [4] | fold induction at 20 mg/kg (NQO1 [1])
≥ 50 | CC[C@@H]1CN(Cc2cc(C(c3ccc4c(nnn4C)c3C)C(C)(C)C(=O)O)ccc2C)Cc2cc3nn(C)cc3cc2O1 (stereo partly drawn) [Example 66-(b), 3-(1,4-dimethyl-1H-benzo[d][1,2,3]triazol-5-yl)-3-(3-(((R)-6-ethyl-2-methyl-2,6,7,9-tetrahydro-8H-[1,4]oxazepino[7,6-f]indazol-8-yl)methyl)-4-methylphenyl)-2,2-dimethylpropanoic Acid] |  | 0.0005 to 0.005 | E (metabolic rate≥250 pmol/min/mg protein) | > 6
≥ 50 | CC[C@@H]1CN(Cc2cc(C(c3ccc4c(nnn4C)c3C)C(C)(C)C(=O)O)ccc2C)Cc2cc3c(Cl)cccc3cc2O1 (stereo partly drawn) [Example 68-(b), 3-(3-(((R)-7-chloro-2-ethyl-2,3-dihydronaphtho[2,3-f][1,4]oxazepin-4 (5H)-yl)methyl)-4-methylphenyl)-3-(1,4-dimethyl-1H-benzo[d][1,2,3]triazol-5-yl)-2,2-dimethylpropanoic Acid] |  | 0.005 to 0.05 | A (metabolic rate<100 pmol/min/mg protein) | 3 to 6
≥ 50 | CC[C@@H]1CN(Cc2cc(C(c3ccc4c(nnn4C)c3C)C(C)(C)C(=O)O)ccc2C)Cc2cc3nccc(Cl)c3cc2O1 (stereo partly drawn) [Example 69, 3-(3-(((R)-10-chloro-2-ethyl-2,3-dihydro-[1,4]oxazepino[7,6-g]quinolin-4 (5H)-yl)methyl)-4-methylphenyl)-3-(1,4-dimethyl-1H-benzo[d][1,2, 3]triazol-5-yl)-2,2-dimethylpropanoic Acid] |  | < 0.0005 | D (200≤metabolic rate<250 pmol/min/me protein) | 3 to 6
≥ 50 | CC[C@@H]1CN(Cc2cc(C(c3ccc4c(nnn4C)c3C)C(C)(C)C(=O)O)ccc2C)Cc2cc3nccc(OC)c3cc2O1 (stereo partly drawn) [Example 70-(b), 3-(1,4-dimethyl-1H-benzo[d][1,2,3]triazol-5-yl)-3-(3-(((R)-2-ethyl-10-methoxy-2,3-dihydro-[1,4]oxazepino[7,6-g]quinolin-4(5H)-yl)methyl)-4-methylphenyl)-2,2-dimethylpropanoic Acid] |  | 0.0005 to 0.005 | E (metabolic rate≥250 pmol/min/mg protein) | > 6
≥ 50 | CC[C@@H]1CN(Cc2cc(C(c3ccc4c(nnn4C)c3C)C(C)(C)C(=O)O)ccc2C)Cc2cc3nccc(C)c3cc2O1 (stereo partly drawn) [Example 71-(b), 3-(1,4-dimethyl-1H-benzo[d][1,2,3]triazol-5-yl)-3-(3-(((R)-2-ethyl-10-methyl-2,3-dihydro-[1,4]oxazepino[7,6-g]quinolin-4 (5H)-yl)methyl)-4-methylphenyl)-2,2-dimethylpropanoic Acid] |  | 0.0005 to 0.005 | D (200≤metabolic rate<250 pmol/min/me protein) | > 6
≥ 50 | CC[C@@H]1CN(Cc2cc(C(c3ccc4c(nnn4C)c3C)C(C)(C)C(=O)O)ccc2C)Cc2cc3ccsc3cc2O1 (stereo partly drawn) [Example 72-(b), 3-(1,4-dimethyl-1H-benzo[d][1,2,3]triazol-5-yl)-3-(3-(((R)-2-ethyl-2,3-dihydrothieno[2′,3′:4,5]benzo[1,2-f][1,4]oxazepin-4(5H)-yl)methyl)-4-methylphenyl)-2,2-dimethylpropanoic Acid] |  | 0.005 to 0.05 | A (metabolic rate<100 pmol/min/mg protein) | ≤ 3
